Data reported in patent US8097590B2, “α-MSH-antagonist dipeptide conjugates” (Centre National de la Recherche Scientifique (CNRS), priority 2004, dated 2012).
Like-named read-outs stand apart in the source and are kept apart here. Values belong to the compound of their own block, whether it stands above or below them. Non-standard residues stand in square brackets, D forms with d. Residues, ends and D or L forms follow the SMILES beside them. No end group written: not given here. *: point of attachment. Palmitoyl = CCCCCCCCCCCCCCCC(=O)*

Legend:
human MC1 receptor = biological target: T1, human MC1 receptor (Homo sapiens, UniProt Q01726); assay: Inhibition of AMPc production induced by α-MSH on M4Be cells; format: cell-based; conditions: M4Be human cell line, 5×10^−8 M α-MSH
T1 construct: endogenous in cells; host or cells: M4Be human melanoma (melanocyte) cell line
T1 sequence (Q01726 whole entry): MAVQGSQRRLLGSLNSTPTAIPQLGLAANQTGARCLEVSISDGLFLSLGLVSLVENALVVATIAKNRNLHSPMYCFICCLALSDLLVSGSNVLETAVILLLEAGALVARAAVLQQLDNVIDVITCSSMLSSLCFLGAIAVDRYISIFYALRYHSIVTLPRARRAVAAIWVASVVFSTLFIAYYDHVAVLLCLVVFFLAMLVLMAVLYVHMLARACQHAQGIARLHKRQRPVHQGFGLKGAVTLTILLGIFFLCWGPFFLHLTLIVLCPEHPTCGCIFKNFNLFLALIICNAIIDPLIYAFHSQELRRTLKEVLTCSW
Protocol: Five Palm-dipeptides according to this invention were introduced at different concentrations and each measurement was made in triplicate. Two or three series of experiments were made.
The M4Be human cell line (Jacubovich et al. Cancer Immunol. Immunother. 1979, 7, 59-64), a melanocytes cell line capable of producing melanines, was used in this study to determine the values of CI50.
The cells were maintained in the Dulbecco modified Eagle medium with 10% of foetal calf serum (FCS), 1 mM of glutamine, 100 U/ml of penicillin and 10^−4 g/ml of streptomycine.
All cell lines were maintained at 37° C. in an atmosphere with 5% of CO2 and cell culture media were renewed every two days. The cells were applied in contact with a plate with 96 wells (Nunc, Roskilde) 24 hours before contact of dipeptides according to the invention.
Cells applied in contact the day before with 8×10^4 cells per well were put in the presence of one of the five dipeptide conjugates according to the invention at various concentrations for 10 minutes at 37° C. with 5×10^−8 M of α-MSH. After this time, the lysis of the cells was made and the AMPc content was measured using a connection test box by competition (RPN225, Amersham Pharmacia Biotech). Each independent experiment was carried out at least twice in triplicate.
The peptidic activity was determined with reference to the AMPc content synthesized by untreated cells and the production of AMPc induced by α-MSH alone. The curves were adjusted and the values of CI50 were determined with non-linear regression in the GraphPad Prism (GraphPad software, San Diego, Calif., United States).

receptor MC1 [1] = conditions: Proc. Natl. Acad. Sci. (1995), 92, result in words; cited from earlier work
receptor MC1 [2] = conditions: Jayawickreme et al., J. Biol. Chem. 1994; cited from earlier work
[3] = 10 minutes at 37° C., experiment 1, read-out: CI50 (μM) exp1
[4] = 10 minutes at 37° C., experiment 2, read-out: CI50 (μM) exp2
[5] = average of the experiments, read-out: CI50 (μM) aver.
[6] = 10 minutes at 37° C., experiment 3, read-out: CI50 (μM) exp3

Compound: CCCCCCCCCCCCCCCC(=O)N[C@@H](CCCNC(=N)N)C(=O)N[C@@H](CCCNC(=N)N)C(N)=O [Compound 41, Palm-Arg-Arg-NH2] (Palmitoyl-Arg-Arg-NH2)
IC50 (human MC1 receptor; [3]): 36 µM
IC50 (human MC1 receptor; [4]): 17 µM
IC50 (human MC1 receptor; [5]): 26 µM

Compound: [dW]-Arg-Leu-NH2
antagonist activity (receptor MC1 [1]): has an antagonist activity

Compound: H-MP[dF]R[dW]FKPV-NH2 [153 N-6]
Ki (receptor MC1 [2]): 0.011 µM

Other lines, results leading:

IC50 (human MC1 receptor; [3]): 20 µM
IC50 (human MC1 receptor; [4]): 26 µM
IC50 (human MC1 receptor; [5]): 23 µM
Compound: CCCCCCCCCCCCCCCC(=O)N[C@@H](CCCNC(=N)N)C(=O)N1CCC[C@H]1C(N)=O [Compound 49, Palm-Arg-Pro-NH2] (Palmitoyl-Arg-Pro-NH2)

IC50 (human MC1 receptor; [3]): 48 µM
IC50 (human MC1 receptor; [4]): 9.6 µM
IC50 (human MC1 receptor; [5]): 29 µM
Compound: CCCCCCCCCCCCCCCC(=O)N[C@@H](CCCNC(=N)N)C(=O)N[C@@H](CCCCN)C(N)=O [Compound 50, Palm-Arg-Lys-NH2] (Palmitoyl-Arg-Lys-NH2)

IC50 (human MC1 receptor; [3]): 29 µM
IC50 (human MC1 receptor; [4]): 4.6 µM
IC50 (human MC1 receptor; [6]): 4.4 µM
IC50 (human MC1 receptor; [5]): 13 µM
Compound: CCCCCCCCCCCCCCCC(=O)N[C@@H](CCCNC(=N)N)C(=O)N[C@@H](Cc1c[nH]cn1)C(N)=O [Compound 39, Palm-Arg-His-NH2] (Palmitoyl-Arg-His-NH2)

IC50 (human MC1 receptor; [3]): 45 µM
IC50 (human MC1 receptor; [4]): 5.5 µM
IC50 (human MC1 receptor; [6]): 1 µM
IC50 (human MC1 receptor; [5]): 17 µM
Compound: CCCCCCCCCCCCCCCC(=O)N[C@@H](CO)C(=O)N1CCC[C@H]1C(N)=O [Compound 125, Palm-Ser-Pro-NH2] (Palmitoyl-Ser-Pro-NH2)
